In test [1] the test system is Proteus mirabilis 18. The test can be described thus: In vitro antibacterial activity, two-fold agar-plate dilution method. It counts as cell-based. The settings on record: HI-agar, incubation at 37°C for 20 hours, inoculum 10^8 viable cells per ml. Here is the method:
(§1) In vitro antibacterial activity was determined by the two-fold agar-plate dilution method as described below. One loopful of an overnight culture of each test strain in Trypticase-soy broth (10^8 viable cells per ml.) was streaked on heart infusion agar (HI-agar) containing graded concentrations of test compound , and minimal inhibitory concentration (MIC) was expressed in terms of µg/ml after incubation at 37°C for 20 hours.

Test [2] deals with Proteus vulgaris 2. The description is as above. The class given is cell-based. The settings on record: HI-agar, incubation at 37°C for 20 hours, inoculum 10^8 viable cells per ml. Here is the method: as §1

By MIC is commonly meant the lowest concentration that inhibits growth of the organism. A low value points to inhibition by little substance. With `Nc1nc(/C(=N/OCC(=O)O)C(=O)NC2C(=O)N3C(C(=O)O)=C(CSc4snc(O)c4C(=O)O)CSC23)ns1` (stereo not drawn) [Test Compound, Sodium 7-[2-(5-amino-1,2,4-thiadiazol-3-yl)-2-carboxymethoxyiminoacetamido]-3-[(4-carboxy-3-hydroxyisothiazol-5-yl)thiomethyl]-3-cephem-4-carboxylate (syn isomer)], the minimal inhibitory concentration (MIC) in test [1] and in test [2] was less than 0.025 µg/mL in each case.

The values above are taken from patent publication EP0118838A2, “New cephem compounds processes for preparation thereof and pharmaceutical compositions containing them” (FUJISAWA PHARMACEUTICAL CO., LTD., priority 1983, dated 1984).
